Tests used:
Format in all cases: binding
CtBP2 = molecular target: T1, CtBP2 (Homo sapiens, UniProt P56545); experiment: SEC-MALS tetramer assembly, concentration dependence
T1 construct: 31–445

CtBP1 [1] = molecular target: T2, CtBP1 (Homo sapiens, UniProt Q13363); experiment: as above; parameters: 28–440
CtBP1 [2] = molecular target: T2, CtBP1; experiment: SEC-MALS tetramer assembly; parameters: 28–375 (crystal); 28–440 (SEC-MALS)

Question: Nc1ncnc2c1ncn2[C@@H]1O[C@H](COP(=O)(O)OP(=O)(O)O)[C@@H](O)[C@H]1O [ADP] was tested. Which EC50 (CtBP2) did it give?
Answer: ~43 µM

Question: And the EC50 (CtBP1 [1])?
Answer: ~52 µM

Question: For Nc1ncnc2c1ncn2[C@@H]1O[C@H](COP(=O)(O)O)[C@@H](O)[C@H]1O [AMP], which EC50 (CtBP1 [2]) is on record?
Answer: ~66 µM

From paper PMC7949142, “NAD(H) phosphates mediate tetramer assembly of human C-terminal binding protein (CtBP)” (The Journal of Biological Chemistry, 2021)
